This experiment can be described thus: Binding affinity to displace radioligand [3H]naltrindole on Opioid receptor delta 1 in guinea pig membranes.
In turn, `CN1CC[C@]23c4c5ccc(Nc6ccccc6)c4O[C@H]2[C@@H](O)C=C[C@H]3[C@H]1C5` yielded an inhibitory constant (Ki) of 1500 nM.
The value for `CNc1ccc2c3c1O[C@H]1[C@@H](O)C=C[C@H]4[C@@H](C2)N(C)CC[C@@]341` was 5700 nM; that for `CN1CC[C@]23c4c5ccc(N)c4O[C@H]2[C@@H](O)C=C[C@H]3[C@H]1C5` was 2400 nM; that for `CN1CC[C@]23c4c5ccc(NCc6ccccc6)c4O[C@H]2[C@@H](O)C=C[C@H]3[C@H]1C5` was 5500 nM.
Take `CN(C)c1ccc2c3c1O[C@H]1[C@@H](O)C=C[C@H]4[C@@H](C2)N(C)CC[C@@]341`: affinity was put at a Ki of 1600 nM.

These data come from BindingDB's records for doi:10.1021/jm000119i (Rensselaer Polytechnic Institute, 2000).
